Measured values from ChEMBL document CHEMBL1201862, “PubChem BioAssay data set” (2004).
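Assay format: 96-well plates, 48-hour exposure. The concentration for 50% growth inhibition is given as GI50.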 Activity calls are given as the source filed them. Cut-off read from the data, not from the text of the source: active = GI50 up to about 1.1 µM and inactive = higher.

Key:
Test in all cases: inhibition of tumour cell growth, NCI panel, 48 h
HCT-116 = system: HCT-116
SK-OV-3 = system: SK-OV-3
A498 = system: A498
SNB-19 = system: SNB-19
COLO 205 = system: COLO 205
NCI-H23 = system: NCI-H23
HOP-92 = system: HOP-92
OVCAR-4 = system: OVCAR-4
RPMI-8226 = system: RPMI-8226
A549 = system: A549
ACHN = system: ACHN
SK-MEL-28 = system: SK-MEL-28
MDA-MB-231 = system: MDA-MB-231
SN12C = system: SN12C
Malme-3M = system: Malme-3M
SF-539 = system: SF-539
MCF7 = system: MCF7
SF-295 = system: SF-295
K562 = system: K562

Measured: GI50

CC(C)(C)OC(=O)N1C(=O)C2CCCC21 (stereo not drawn)
inactive: HCT-116 > 100 µM | SK-OV-3 > 100 µM | A498 > 100 µM | SNB-19 > 100 µM | COLO 205 > 100 µM | NCI-H23 > 100 µM | HOP-92 > 100 µM | OVCAR-4 > 100 µM | RPMI-8226 > 100 µM | A549 > 100 µM | ACHN > 100 µM | SK-MEL-28 > 100 µM | MDA-MB-231 > 100 µM | SN12C > 100 µM

O=C(O)CCCOc1cc(-c2ccccc2F)nc2cc3c(cc12)OCO3
inactive: Malme-3M 7.38 µM | SK-OV-3 6.11 µM | SF-539 3.4 µM | MCF7 5.35 µM | COLO 205 3.47 µM | NCI-H23 44.9 µM | HOP-92 13 µM | OVCAR-4 45.9 µM | RPMI-8226 3.73 µM | A549 5.77 µM | SK-MEL-28 7.89 µM | MDA-MB-231 31.3 µM | SN12C 19.3 µM

COc1cc(Oc2nc3cc(F)c(F)cc3nc2-c2ccccc2)cc(OC)c1OC
inactive: HCT-116 > 100 µM | Malme-3M 32 µM | SK-OV-3 > 100 µM | A498 > 100 µM | SNB-19 34.2 µM | SF-539 26.8 µM | MCF7 29.5 µM | COLO 205 > 100 µM | NCI-H23 > 100 µM | HOP-92 > 100 µM | OVCAR-4 79.3 µM | A549 > 100 µM | SF-295 46.3 µM | ACHN 43.5 µM | SK-MEL-28 > 100 µM | SN12C > 100 µM

C[n+]1c2ccccc2c(C(=O)Nc2ccc(S(=O)(=O)Nc3ncccn3)cc2)c2ccccc21
inactive: HCT-116 72.6 µM | Malme-3M > 100 µM | SK-OV-3 > 100 µM | SNB-19 > 100 µM | SF-539 > 100 µM | MCF7 > 100 µM | COLO 205 > 100 µM | NCI-H23 > 100 µM | OVCAR-4 > 100 µM | RPMI-8226 > 100 µM | A549 > 100 µM | SF-295 > 100 µM | ACHN > 100 µM | SK-MEL-28 > 100 µM | MDA-MB-231 71.9 µM | SN12C > 100 µM | K562 97.5 µM

FC(F)(F)C12C34C=CC5(CCC6(C=CC1(CC3)O6)C52C(F)(F)F)O4 (stereo not drawn)
inactive: HCT-116 > 100 µM | Malme-3M > 100 µM | SK-OV-3 > 100 µM | A498 > 100 µM | SNB-19 > 100 µM | SF-539 > 100 µM | COLO 205 > 100 µM | NCI-H23 > 100 µM | HOP-92 > 100 µM | OVCAR-4 > 100 µM | A549 > 100 µM | SF-295 > 100 µM | ACHN > 100 µM | SK-MEL-28 > 100 µM | SN12C > 100 µM | K562 > 100 µM

COc1ccc(/C=C2\CN(C)Cc3c2nc(O)c(C#N)c3-c2ccc(OC)cc2)cc1
inactive: HCT-116 60.7 µM | Malme-3M 12.5 µM | SK-OV-3 38.1 µM | SNB-19 34.5 µM | MCF7 16.5 µM | COLO 205 66.1 µM | NCI-H23 > 100 µM | HOP-92 25.2 µM | OVCAR-4 37.1 µM | RPMI-8226 21.7 µM | A549 44.6 µM | SF-295 38.3 µM | ACHN > 100 µM | SK-MEL-28 > 100 µM | MDA-MB-231 > 100 µM | SN12C 42.5 µM | K562 57.5 µM

CN(/N=C/c1cccs1)c1ccc(Cl)cc1[N+](=O)[O-]
inactive: HCT-116 26.2 µM | SK-OV-3 40.8 µM | SNB-19 56.2 µM | SF-539 25 µM | MCF7 18 µM | COLO 205 > 10 µM | NCI-H23 35.3 µM | OVCAR-4 59.3 µM | RPMI-8226 22 µM | A549 30.3 µM | SF-295 37.7 µM | ACHN 40 µM | SK-MEL-28 78.5 µM | MDA-MB-231 14.2 µM | SN12C 24.5 µM | K562 5.78 µM

CCCC(=O)NC(Nc1ccc(S(=O)(=O)Nc2nc(C)cc(C)n2)cc1)(C(F)(F)F)C(F)(F)F
inactive: HCT-116 > 100 µM | Malme-3M > 100 µM | SK-OV-3 > 100 µM | A498 > 100 µM | SNB-19 > 100 µM | SF-539 > 100 µM | COLO 205 > 100 µM | NCI-H23 > 100 µM | HOP-92 > 100 µM | OVCAR-4 > 100 µM | RPMI-8226 > 100 µM | A549 > 100 µM | SF-295 > 100 µM | ACHN > 100 µM | SK-MEL-28 > 100 µM | MDA-MB-231 > 100 µM | SN12C > 100 µM | K562 > 100 µM

N=c1nc(N)nc(N)n1-c1ccc(S(N)(=O)=O)cc1
inactive: HCT-116 > 100 µM | Malme-3M > 100 µM | A498 > 100 µM | SNB-19 > 100 µM | NCI-H23 > 100 µM | HOP-92 > 100 µM | OVCAR-4 > 100 µM | A549 > 100 µM | SF-295 > 100 µM | ACHN > 100 µM | SK-MEL-28 > 100 µM | MDA-MB-231 > 100 µM | SN12C > 100 µM | K562 > 100 µM

CC(C)Oc1cccc(N2C(NCc3c[nH]c4ccccc34)=Nc3ccncc3S2(=O)=O)c1
inactive: HCT-116 27.7 µM | Malme-3M 20.5 µM | SK-OV-3 33.2 µM | A498 28.8 µM | SNB-19 32.4 µM | SF-539 53.6 µM | MCF7 18.4 µM | COLO 205 11.2 µM | NCI-H23 22.8 µM | HOP-92 15.4 µM | OVCAR-4 34.4 µM | RPMI-8226 7.01 µM | A549 20.4 µM | SF-295 18.7 µM | ACHN 20.4 µM | SK-MEL-28 45.8 µM | SN12C 39.5 µM | K562 21.1 µM

CN1CC(c2ccccc2)=CC2=C1C=CC(=N)/C2=N\N
inactive: HCT-116 > 100 µM | Malme-3M 42.3 µM | SK-OV-3 > 100 µM | SNB-19 86.9 µM | SF-539 > 100 µM | MCF7 > 100 µM | NCI-H23 > 100 µM | OVCAR-4 > 100 µM | RPMI-8226 > 100 µM | A549 > 100 µM | SF-295 75.3 µM | ACHN > 100 µM | SK-MEL-28 > 100 µM | MDA-MB-231 > 100 µM | SN12C > 100 µM | K562 > 100 µM

NC1CCCCC1.O=C(CP(=O)(O)O)NC(CC(=O)OCc1ccccc1)C(=O)OCc1ccccc1 (stereo not drawn)
inactive: HCT-116 > 100 µM | Malme-3M > 100 µM | SK-OV-3 > 100 µM | A498 > 100 µM | SNB-19 > 100 µM | SF-539 > 100 µM | COLO 205 > 100 µM | NCI-H23 > 100 µM | HOP-92 > 100 µM | OVCAR-4 > 100 µM | RPMI-8226 > 100 µM | A549 > 100 µM | SF-295 > 100 µM | ACHN > 100 µM | SK-MEL-28 > 100 µM | MDA-MB-231 > 100 µM | SN12C > 100 µM | K562 > 100 µM
